Measurements taken from ChEMBL document CHEMBL1201862, “PubChem BioAssay data set” (2004).
Activity calls are given as the source filed them.

How the values were obtained:
Vero [1] = experiment: cells; type: functional; conditions: Chlorocebus sabaeus
Vero [2] = experiment: cells; type: functional, cell-based; conditions: Chlorocebus sabaeus
[3] = target: Delta-type opioid receptor (Homo sapiens, UniProt P41143); experiment: Counterscreen for agonists of heterodimerization of the mu 1 (OPRM1) and delta 1 (OPRD1) opioid receptors: Luminescence-based cell-based high throughput dose response assay to identify agonists of OPRD1 homodimerization. [Related pubchem assays (depositor defined):AID504326, AID504355, AID504692, AID504904, AID504905]; type: functional
Chain of Delta-type opioid receptor (P41143 whole entry): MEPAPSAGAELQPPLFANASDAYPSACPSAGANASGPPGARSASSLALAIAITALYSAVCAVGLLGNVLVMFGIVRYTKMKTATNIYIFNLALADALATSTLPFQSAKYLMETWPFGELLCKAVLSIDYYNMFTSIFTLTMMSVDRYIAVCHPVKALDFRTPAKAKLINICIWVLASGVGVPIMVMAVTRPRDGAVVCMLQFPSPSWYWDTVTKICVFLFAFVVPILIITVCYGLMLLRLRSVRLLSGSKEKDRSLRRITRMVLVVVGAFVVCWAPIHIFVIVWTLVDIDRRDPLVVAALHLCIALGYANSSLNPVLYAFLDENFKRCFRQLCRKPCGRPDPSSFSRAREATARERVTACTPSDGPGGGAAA

[4] = target: T1, Short transient receptor potential channel 4 (Mus musculus, UniProt Q9QUQ5); experiment: mouse TRPC4 channel activators, dose response, cell-based, HEK293 TRPC4/mu-opioid, Fluo-4 calcium (AID 434937); type: functional
T1 sequence (Q9QUQ5 whole entry): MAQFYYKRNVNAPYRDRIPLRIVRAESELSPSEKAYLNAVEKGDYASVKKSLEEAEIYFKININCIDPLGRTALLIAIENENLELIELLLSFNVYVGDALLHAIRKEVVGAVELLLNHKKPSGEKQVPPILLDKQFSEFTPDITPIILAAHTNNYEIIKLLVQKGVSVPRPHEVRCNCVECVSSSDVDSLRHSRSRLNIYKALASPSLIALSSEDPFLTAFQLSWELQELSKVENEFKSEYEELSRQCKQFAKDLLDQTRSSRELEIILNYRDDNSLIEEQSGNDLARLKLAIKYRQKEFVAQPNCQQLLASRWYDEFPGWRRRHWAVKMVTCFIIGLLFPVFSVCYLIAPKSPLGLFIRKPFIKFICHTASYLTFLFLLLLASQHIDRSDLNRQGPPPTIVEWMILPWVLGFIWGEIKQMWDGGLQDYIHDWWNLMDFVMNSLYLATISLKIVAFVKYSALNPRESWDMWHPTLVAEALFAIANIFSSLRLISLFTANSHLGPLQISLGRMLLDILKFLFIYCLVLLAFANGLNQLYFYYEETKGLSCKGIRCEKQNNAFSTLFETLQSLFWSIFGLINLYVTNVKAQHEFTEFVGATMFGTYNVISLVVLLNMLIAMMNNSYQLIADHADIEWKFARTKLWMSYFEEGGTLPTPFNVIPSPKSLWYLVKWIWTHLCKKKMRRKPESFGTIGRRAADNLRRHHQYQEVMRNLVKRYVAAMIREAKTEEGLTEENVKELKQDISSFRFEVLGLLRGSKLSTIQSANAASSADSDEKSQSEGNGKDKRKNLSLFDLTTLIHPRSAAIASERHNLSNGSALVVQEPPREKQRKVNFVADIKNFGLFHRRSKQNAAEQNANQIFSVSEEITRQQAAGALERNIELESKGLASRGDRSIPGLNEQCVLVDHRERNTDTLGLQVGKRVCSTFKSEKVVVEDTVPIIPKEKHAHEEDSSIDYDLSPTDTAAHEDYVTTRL

Mu-type opioid receptor = Mu-type opioid receptor (Homo sapiens, UniProt P35372); experiment: Counterscreen for agonists of heterodimerization of the mu 1 (OPRM1) and delta 1 (OPRD1) opioid receptors: Luminescence-based cell-based high throughput dose response assay to identify agonists of OPRM1 homodimerization.; type: functional;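 note: U2OS cells expressing OPRM1 and beta-arrestin as split beta-galactosidase partners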
Chain of Mu-type opioid receptor (P35372 whole entry): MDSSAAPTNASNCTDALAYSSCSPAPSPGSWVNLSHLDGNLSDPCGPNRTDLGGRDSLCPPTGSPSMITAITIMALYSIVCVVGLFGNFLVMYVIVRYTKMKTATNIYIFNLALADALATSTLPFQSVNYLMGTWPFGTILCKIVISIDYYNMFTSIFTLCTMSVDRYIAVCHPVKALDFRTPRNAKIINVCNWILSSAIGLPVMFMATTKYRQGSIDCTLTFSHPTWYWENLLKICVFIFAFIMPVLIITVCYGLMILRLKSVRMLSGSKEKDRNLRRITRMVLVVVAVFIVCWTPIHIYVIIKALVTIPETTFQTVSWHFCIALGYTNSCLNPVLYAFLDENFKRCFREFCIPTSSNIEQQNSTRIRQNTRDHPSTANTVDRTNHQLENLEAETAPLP

Nonstructural protein 1 = Nonstructural protein 1 (Influenza A virus, UniProt Q194T2); type: functional, Influenza A virus (A/California/07/2009(H1N1))
Chain of Nonstructural protein 1 (Q194T2 whole entry): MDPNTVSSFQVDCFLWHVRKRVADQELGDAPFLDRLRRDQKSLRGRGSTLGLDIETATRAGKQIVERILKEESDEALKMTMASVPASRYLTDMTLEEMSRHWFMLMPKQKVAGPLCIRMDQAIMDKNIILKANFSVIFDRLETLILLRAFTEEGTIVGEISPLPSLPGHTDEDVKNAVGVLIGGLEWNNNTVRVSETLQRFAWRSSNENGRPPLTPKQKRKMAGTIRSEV

[5] = target: 5-hydroxytryptamine receptor 5A (Homo sapiens, UniProt P47898); experiment: Counterscreen for agonists of OPRM1-OPRD1 heterodimerization: luminescence-based cell-based high throughput dose response assay to identify agonists of 5-hydroxytryptamine (serotonin) 5A receptor (HTR5A). [Related pubchem assays (depositor defined):AID504326, AID504355, AID504692, AID504904, AID504905]; type: functional
Chain of 5-hydroxytryptamine receptor 5A (P47898 whole entry): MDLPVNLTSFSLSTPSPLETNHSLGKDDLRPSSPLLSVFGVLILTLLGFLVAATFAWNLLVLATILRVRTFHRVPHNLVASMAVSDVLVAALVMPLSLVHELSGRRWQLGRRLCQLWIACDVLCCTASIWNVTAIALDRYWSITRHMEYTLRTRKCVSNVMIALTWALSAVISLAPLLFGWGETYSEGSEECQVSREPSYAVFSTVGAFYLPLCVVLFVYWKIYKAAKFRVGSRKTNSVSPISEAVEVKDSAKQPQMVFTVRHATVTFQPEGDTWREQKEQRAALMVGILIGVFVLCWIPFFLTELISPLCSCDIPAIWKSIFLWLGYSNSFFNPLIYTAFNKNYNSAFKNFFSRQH

[6] = inhibitors of intracellular T. cruzi replication, confirmation, NIH3T3 host cells, beta-gal luminescence (AID 2044); type: functional, cell-based;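 note: intracellular parasites grown in NIH/3T3 mouse fibroblasts as host cells; luminescent beta-galactosidase reporter signal from transgenic T. cruzi replicating inside host cells; inhibitors lower the luminescence signal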
[7] = cytotoxicity toward NIH3T3 fibroblasts, dose response, counter-screen, cell-based, ATP luminescence, mouse fibroblasts (AID 2010); type: functional;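 note: cells exposed to compound for about 90 hours before reading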
Escherichia coli [8] = experiment: microbe, parasite or virus in culture
Escherichia coli [9] = experiment: microbe, parasite or virus in culture; remark: listed apart in the source
A-375 [10] = experiment: MITF: Counter assay: A375 proliferation Measured in Cell-Based System Using Plate Reader - 2084-03_Inhibitor_Dose_DryPowder_Activity. [Related pubchem assays (depositor defined):AID488944]; type: functional; conditions: Homo sapiens
A-375 [11] = experiment: A375 melanoma cell viability reduction, dose response, counter-screen for MITF modulator project, cherry-pick samples, set 2 (AID 540335); type: functional, cell-based; conditions: Homo sapiens
[12] = target: T2, Alkaline phosphatase, tissue-nonspecific isozyme (Homo sapiens, UniProt P05186); experiment: TNAP enzyme inhibition by screening hits, dose response, selectivity assay for mouse IAP inhibitor project, biochemical, human TNAP, uHTS hits (AID 488906); type: functional
T2 sequence (P05186 whole entry): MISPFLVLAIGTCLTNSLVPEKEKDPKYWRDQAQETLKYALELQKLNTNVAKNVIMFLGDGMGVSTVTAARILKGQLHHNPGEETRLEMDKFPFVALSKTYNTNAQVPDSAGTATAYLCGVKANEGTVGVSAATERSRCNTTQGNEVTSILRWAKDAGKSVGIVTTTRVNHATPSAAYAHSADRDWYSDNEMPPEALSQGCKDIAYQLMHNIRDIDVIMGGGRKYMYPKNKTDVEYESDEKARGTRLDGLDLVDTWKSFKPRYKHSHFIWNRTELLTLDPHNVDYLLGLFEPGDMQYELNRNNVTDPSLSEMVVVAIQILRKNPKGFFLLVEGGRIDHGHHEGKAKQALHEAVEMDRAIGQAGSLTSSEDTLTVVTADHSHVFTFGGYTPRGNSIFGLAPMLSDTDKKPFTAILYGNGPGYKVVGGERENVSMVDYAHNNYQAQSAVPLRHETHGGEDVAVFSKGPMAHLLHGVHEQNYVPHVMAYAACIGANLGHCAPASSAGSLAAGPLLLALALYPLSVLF

[13] = target: T3, Probable nicotinate-nucleotide adenylyltransferase (Staphylococcus aureus (strain N315), UniProt P65502); type: functional, Staphylococcus aureus subsp. aureus N315; conditions: read-out: IC50_Mean;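 for IC50 Mean: confirmatory dose-response retesting of NadD inhibitor hits first found in an ultra-high-throughput screen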
T3 sequence (P65502 whole entry): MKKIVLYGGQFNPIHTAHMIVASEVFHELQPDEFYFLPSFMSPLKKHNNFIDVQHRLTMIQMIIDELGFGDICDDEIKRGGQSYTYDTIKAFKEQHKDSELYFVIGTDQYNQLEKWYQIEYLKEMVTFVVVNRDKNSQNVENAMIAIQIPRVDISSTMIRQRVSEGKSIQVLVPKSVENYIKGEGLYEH

[14] = target: Intestinal-type alkaline phosphatase (Homo sapiens, UniProt P09923); experiment: inhibition of human intestinal alkaline phosphatase – biochemical, dose response (AID 488876); type: functional
Chain of Intestinal-type alkaline phosphatase (Homo sapiens, UniProt P09923) (P09923 whole entry): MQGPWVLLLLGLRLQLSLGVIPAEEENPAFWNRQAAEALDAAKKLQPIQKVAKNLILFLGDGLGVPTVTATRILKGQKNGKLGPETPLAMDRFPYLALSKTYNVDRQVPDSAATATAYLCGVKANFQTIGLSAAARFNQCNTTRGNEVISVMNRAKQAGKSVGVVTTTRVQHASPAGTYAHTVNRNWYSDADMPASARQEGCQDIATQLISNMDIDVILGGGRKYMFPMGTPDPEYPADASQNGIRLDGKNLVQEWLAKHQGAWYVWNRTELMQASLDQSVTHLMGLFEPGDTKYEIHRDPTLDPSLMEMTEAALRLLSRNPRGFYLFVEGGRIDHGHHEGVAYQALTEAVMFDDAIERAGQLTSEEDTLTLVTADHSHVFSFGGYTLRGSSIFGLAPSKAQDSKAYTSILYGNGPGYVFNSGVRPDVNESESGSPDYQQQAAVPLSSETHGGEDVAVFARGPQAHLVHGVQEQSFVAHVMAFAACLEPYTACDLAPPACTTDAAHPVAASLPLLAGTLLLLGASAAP

[15] = target: T3, Probable nicotinate-nucleotide adenylyltransferase; type: functional, Staphylococcus aureus subsp. aureus N315
H9c2 = experiment: cells; type: functional, cell-based; conditions: Rattus norvegicus, H9c2, Myocardium;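 note: confirmatory concentration-response retest of ultra-high-throughput screening hits for modulation of myocardial damage; cell death induced by hydrogen peroxide oxidative stress; compound pretreatment for 60 min then peroxide exposure for 2 h; potency is for protecting the cells against peroxide damage rather than for killing them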
[16] = target: Intestinal-type alkaline phosphatase (Mus musculus, UniProt P24822); experiment: PubChem AID 488785; type: functional
Chain of Intestinal-type alkaline phosphatase (Mus musculus, UniProt P24822) (P24822 whole entry): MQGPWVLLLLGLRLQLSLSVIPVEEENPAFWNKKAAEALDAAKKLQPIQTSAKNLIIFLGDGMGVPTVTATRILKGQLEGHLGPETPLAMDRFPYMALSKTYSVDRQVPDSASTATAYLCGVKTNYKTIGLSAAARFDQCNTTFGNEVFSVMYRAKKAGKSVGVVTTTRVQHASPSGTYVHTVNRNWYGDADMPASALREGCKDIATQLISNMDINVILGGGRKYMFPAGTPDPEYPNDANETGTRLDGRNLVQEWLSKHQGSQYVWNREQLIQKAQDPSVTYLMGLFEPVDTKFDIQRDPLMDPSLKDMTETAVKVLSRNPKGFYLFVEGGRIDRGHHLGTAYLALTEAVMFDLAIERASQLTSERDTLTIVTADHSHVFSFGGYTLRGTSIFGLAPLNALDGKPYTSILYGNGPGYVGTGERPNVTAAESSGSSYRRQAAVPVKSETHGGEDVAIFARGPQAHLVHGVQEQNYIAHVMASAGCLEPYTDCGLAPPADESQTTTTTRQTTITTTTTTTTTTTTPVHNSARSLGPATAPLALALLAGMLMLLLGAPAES

CAAX prenyl protease 2 = CAAX prenyl protease 2 (Homo sapiens, UniProt Q9Y256); experiment: human Rce1 protease inhibitors, dose response, biochemical, yeast membranes, quenched-peptide fluorescence, cherry-pick (AID 588849)
Chain of CAAX prenyl protease 2 (Q9Y256 whole entry): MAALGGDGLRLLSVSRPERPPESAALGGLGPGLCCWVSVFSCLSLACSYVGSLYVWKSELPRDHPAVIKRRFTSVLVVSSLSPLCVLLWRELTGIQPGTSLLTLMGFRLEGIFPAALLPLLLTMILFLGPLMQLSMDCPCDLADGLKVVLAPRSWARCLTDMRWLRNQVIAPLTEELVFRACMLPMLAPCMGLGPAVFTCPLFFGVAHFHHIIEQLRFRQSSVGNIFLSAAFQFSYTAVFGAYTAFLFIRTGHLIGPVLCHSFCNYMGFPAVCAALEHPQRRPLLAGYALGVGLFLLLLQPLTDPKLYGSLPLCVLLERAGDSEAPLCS

Trypsin = Trypsin (Sus scrofa, UniProt P00761); experiment: porcine trypsin inhibitors, dose response, selectivity assay for Rce1 protease inhibitor project, biochemical, quenched peptide fluorescence, cherry-pick (AID 488789)
Chain of Trypsin (P00761 whole entry): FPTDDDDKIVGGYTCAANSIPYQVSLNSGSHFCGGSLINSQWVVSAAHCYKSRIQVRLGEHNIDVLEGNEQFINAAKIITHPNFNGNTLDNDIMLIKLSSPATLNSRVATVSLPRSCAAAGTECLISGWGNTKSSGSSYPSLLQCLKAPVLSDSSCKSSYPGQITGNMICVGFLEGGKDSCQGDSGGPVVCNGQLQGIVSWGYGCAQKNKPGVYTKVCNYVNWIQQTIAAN

[17] = target: Dual specificity protein kinase CLK1 (Homo sapiens, UniProt P49759); experiment: CLK1 kinase inhibitors, off-target check, dose response, selectivity assay for Dyrk1A inhibitor project, biochemical, cherry-picked samples (AID 588811)
Chain of Dual specificity protein kinase CLK1 (P49759 whole entry): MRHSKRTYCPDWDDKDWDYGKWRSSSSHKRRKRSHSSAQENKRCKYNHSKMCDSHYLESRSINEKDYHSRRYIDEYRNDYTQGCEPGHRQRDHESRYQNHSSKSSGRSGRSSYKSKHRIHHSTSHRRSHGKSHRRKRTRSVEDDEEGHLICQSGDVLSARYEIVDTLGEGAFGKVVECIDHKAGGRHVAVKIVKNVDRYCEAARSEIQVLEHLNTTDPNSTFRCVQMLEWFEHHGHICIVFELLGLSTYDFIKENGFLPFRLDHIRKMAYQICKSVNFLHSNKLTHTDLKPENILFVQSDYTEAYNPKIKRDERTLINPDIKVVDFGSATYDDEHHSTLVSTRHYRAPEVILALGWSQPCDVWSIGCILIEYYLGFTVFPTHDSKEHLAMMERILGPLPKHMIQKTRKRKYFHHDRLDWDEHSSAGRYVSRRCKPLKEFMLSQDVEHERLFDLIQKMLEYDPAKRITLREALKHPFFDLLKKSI

Protein skinhead-1 = target: T4, Protein skinhead-1 (Caenorhabditis elegans, UniProt P34707); type: functional
T4 sequence (P34707 whole entry): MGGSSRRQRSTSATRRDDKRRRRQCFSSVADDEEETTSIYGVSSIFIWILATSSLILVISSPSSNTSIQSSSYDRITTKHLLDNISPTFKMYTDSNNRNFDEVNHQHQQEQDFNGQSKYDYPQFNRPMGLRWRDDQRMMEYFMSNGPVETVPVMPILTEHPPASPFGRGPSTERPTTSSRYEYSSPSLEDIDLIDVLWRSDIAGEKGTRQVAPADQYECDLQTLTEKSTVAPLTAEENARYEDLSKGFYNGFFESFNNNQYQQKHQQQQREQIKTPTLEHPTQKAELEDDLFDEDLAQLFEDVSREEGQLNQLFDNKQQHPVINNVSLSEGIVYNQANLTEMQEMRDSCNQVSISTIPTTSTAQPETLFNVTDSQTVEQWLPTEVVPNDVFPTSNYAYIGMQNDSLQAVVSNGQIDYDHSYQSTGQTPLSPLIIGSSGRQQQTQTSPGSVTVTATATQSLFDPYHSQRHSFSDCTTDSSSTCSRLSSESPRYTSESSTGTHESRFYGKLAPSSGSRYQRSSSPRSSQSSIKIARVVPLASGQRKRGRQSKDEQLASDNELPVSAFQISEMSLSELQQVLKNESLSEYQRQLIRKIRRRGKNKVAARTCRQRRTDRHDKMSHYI

INS1 = experiment: protection of INS-1E cells from cytokine death, dose response, ATP luminescence, dry powder (AID 488844); type: functional, cell-based; conditions: Rattus norvegicus
Albumin = Albumin (Bos taurus, UniProt P02769); experiment: Counterscreen for inhibitors of T-cell receptor (TCR)-CD3 interaction: Fluorescence-based biochemical high throughput dose response assay to identify inhibitors of T-cell receptor (TCR)-CD3 interaction using a TAMRA-labeled BSA probe.; type: functional
Chain of Albumin (P02769 whole entry): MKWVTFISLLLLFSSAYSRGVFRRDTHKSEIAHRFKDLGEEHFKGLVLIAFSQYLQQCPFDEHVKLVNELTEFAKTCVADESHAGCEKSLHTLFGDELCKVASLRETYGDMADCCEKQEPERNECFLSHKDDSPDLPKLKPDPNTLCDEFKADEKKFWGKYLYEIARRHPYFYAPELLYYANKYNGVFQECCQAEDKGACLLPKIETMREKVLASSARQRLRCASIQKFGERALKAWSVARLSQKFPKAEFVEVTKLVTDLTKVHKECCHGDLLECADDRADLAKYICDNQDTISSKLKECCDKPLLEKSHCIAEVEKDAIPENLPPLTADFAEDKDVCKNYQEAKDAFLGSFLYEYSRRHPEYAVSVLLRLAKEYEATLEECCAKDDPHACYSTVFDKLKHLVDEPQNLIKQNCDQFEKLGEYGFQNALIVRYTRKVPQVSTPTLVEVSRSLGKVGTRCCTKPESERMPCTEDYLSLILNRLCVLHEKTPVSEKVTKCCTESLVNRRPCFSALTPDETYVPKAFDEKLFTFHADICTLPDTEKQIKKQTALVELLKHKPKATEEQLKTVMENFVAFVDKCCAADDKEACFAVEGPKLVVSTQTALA

CCN(C(=O)CCN1C(=O)/C(=C/c2ccccc2)SC1=S)C1CCS(=O)(=O)C1 (stereo unspecified)
CC50 (Vero [1]): 22.1 µM (active) | IC50 (Vero [2]): > 25 µM (active)

Cc1cc(N2CCN(C)CC2)ccc1NC(=O)c1ccc(-c2ccc(Cl)cc2)o1
EC50 [3]: > 92.4 µM (inactive) | EC50 [4]: 0.749 µM (active) | EC50 (Mu-type opioid receptor): > 92.4 µM (inactive) | IC50 (Nonstructural protein 1): 44 µM (active) | EC50 [5]: > 92.4 µM (inactive) | EC50 [6]: 0.254 µM (active) | EC50 [7]: 9.64 µM (active)

O=C(CSC1=NCCS1)c1ccc(Cl)cc1
AC50 (Escherichia coli [8]): 28 µM (active)

Cc1ccccc1OCC(=O)Nc1nnc(-c2ccncc2)s1
AC50 (Escherichia coli [9]): 39.7 µM (active)

O=C(NCc1ccc2c(c1)OCO2)c1cc(O)nc2ccccc12
AC50 (A-375 [10]): > 35 µM (active) | AC50 (A-375 [11]): > 35 µM (active)

O=C(NNC(=O)c1cc2cc(Br)ccc2oc1=O)c1ccc(O)cc1O
IC50 [12]: > 100 µM (inactive) | IC50 [13]: 44.7 µM (active) | IC50 [14]: > 100 µM (inactive) | IC50 [15]: 16.3 µM (active) | IC50 (H9c2): > 79 µM (inactive) | IC50 [16]: 12.9 µM (active)

Cc1cc(=O)oc2c3c(cc(OCC(=O)N4CCC(C(=O)O)CC4)c12)OC(C)(C)CC3
AC50 (CAAX prenyl protease 2): 1.28 µM (active) | AC50 (Trypsin): 1.51 µM (active)

CC(Nc1nc(-c2cccnc2)nc2ccccc12)c1ccc(F)cc1 (stereo unspecified)
AC50 [17]: 9.34 µM (active) | EC50 [6]: 0.658 µM (active) | EC50 [7]: 14.4 µM (active)

Cc1ccc(CNc2ncnc3ccc(-c4ccc5c(c4)OCO5)cc23)o1
AC50 [17]: 0.0226 µM (active)

O=C(NCc1ccco1)c1ccc(COCC(F)(F)F)cc1
AC50 (A-375 [10]): > 35 µM (active) | AC50 (A-375 [11]): > 35 µM (active)

CCOC(=O)c1c(-c2ccc(OC)cc2)oc2ccc(OC(=O)N(C)C)cc12
AC50 (CAAX prenyl protease 2): 6.46 µM (active)

Clc1ccc(-c2nc3cc(CN4CCCCC4)ccc3o2)cc1
IC50 (Protein skinhead-1): 4.15 µM (active) | CC50 (Vero [1]): > 25 µM (active) | IC50 (Vero [2]): > 25 µM (active)

C=CCn1c(SCC(=O)NCc2ccc3c(c2)OCO3)nnc1-c1cccnc1
AC50 (Escherichia coli [9]): 50.2 µM (active)

CN(C)CCCN(C(=O)c1ccc(S(=O)(=O)N2CCCCCC2)cc1)c1nc2c(F)cc(F)cc2s1
EC50 [3]: > 92.4 µM (inactive) | EC50 [4]: 5.31 µM (active) | EC50 (Mu-type opioid receptor): 33.4 µM (inactive) | EC50 [5]: > 92.4 µM (inactive)

COc1ccc(S(=O)(=O)N(C)C[C@@H]2Oc3c(NC(=O)c4cc(C)nn4C)cccc3C(=O)N([C@@H](C)CO)C[C@H]2C)cc1
AC50 (INS1): > 260 µM (inactive)

COc1cc(/C=N/NC(=O)c2cc(O)cc(O)c2)ccc1OC(=O)c1ccccc1
IC50 [12]: 26.8 µM (active) | IC50 [14]: 77.1 µM (active) | IC50 (Albumin): > 94.1 µM (inactive) | IC50 [16]: 4.43 µM (active)
